# From patent US20020026053A1, “Novel 3-(substituted) -2- indolinones compounds and use thereof as inhibitors of protein kinase activity” (priority 1997, published 2002)
# Target: T1, Met receptor (EGFR/Met chimeric cells, EMR) (Homo sapiens, UniProt P08581)
# T1 construct: expressed in transfected cells; the other entry of the earlier key: EGFR (P00533, Epidermal growth factor receptor)
# Assay: Met Autophosphorylation Assay
# Format: biochemical
# Conditions: protocol P.130
# How it was run: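 Met phosphorylation was measured by capture ELISA. Lysates (90 μg/100 μl, HNTG plus 1 mM PMSF) from transiently transfected EGFR/Met chimera (EMR) cells were bound for 60 min at room temperature to wells holding rabbit anti-Met (C-28) on goat anti-rabbit coat. Phosphotyrosine was the read-out.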
# T1 sequence (P08581 with tags, fused parts or gaps): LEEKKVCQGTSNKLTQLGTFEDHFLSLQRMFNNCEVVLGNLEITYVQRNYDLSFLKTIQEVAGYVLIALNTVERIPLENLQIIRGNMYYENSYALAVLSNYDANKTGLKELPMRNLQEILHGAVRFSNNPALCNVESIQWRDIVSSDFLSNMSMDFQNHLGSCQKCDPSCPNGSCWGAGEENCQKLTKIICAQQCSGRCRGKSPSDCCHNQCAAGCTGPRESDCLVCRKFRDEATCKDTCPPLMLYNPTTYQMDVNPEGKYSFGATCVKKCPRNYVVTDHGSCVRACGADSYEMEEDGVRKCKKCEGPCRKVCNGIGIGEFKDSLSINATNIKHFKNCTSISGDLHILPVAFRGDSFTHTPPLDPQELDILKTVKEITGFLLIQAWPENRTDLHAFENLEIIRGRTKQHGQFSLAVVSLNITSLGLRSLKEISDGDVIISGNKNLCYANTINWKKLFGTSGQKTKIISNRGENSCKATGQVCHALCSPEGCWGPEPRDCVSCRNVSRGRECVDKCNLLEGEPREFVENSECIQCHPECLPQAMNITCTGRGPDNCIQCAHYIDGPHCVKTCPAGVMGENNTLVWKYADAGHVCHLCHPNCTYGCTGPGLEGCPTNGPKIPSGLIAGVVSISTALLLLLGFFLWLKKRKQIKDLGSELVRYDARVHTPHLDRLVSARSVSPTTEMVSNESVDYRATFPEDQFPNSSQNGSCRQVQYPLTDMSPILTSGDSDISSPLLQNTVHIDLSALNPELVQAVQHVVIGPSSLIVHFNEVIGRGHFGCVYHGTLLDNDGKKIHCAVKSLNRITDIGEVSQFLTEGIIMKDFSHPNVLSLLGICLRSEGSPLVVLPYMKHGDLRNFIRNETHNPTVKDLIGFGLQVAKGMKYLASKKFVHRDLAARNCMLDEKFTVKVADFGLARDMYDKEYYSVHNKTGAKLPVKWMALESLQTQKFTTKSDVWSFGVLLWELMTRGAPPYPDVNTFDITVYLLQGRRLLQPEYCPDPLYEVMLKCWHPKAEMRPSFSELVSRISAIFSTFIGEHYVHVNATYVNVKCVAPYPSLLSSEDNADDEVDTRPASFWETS
compound,measurement,value
Cc1ccc(C)c(C=C2C(=O)Nc3c(Br)cc(Br)c(C)c32)c1 [10737/H07],Met Kinase % Inhibition (P.130),51.8%
Cc1c(Br)cc(Br)c2c1C(=Cc1ccc3ccccc3c1)C(=O)N2 [10737/H08],Met Kinase % Inhibition (P.130),28.0%
Cc1c(Br)cc(Br)c2c1C(=Cc1ccc(Oc3ccccc3)cc1)C(=O)N2 [10737/H09],Met Kinase % Inhibition (P.130),38.1%
Cc1c(Br)cc(Br)c2c1C(=Cc1cccc(Oc3ccc(C(C)(C)C)cc3)c1)C(=O)N2 [10737/H10],Met Kinase % Inhibition (P.130),51.6%
Cc1c(Br)cc(Br)c2c1C(=Cc1cccc(Oc3cccc(C(F)(F)F)c3)c1)C(=O)N2 [10737/H11],Met Kinase % Inhibition (P.130),31.7%
Cc1ccc(Oc2cccc(C=C3C(=O)Nc4c(Br)cc(Br)cc43)c2)cc1 [10738/A02],Met Kinase % Inhibition (P.130),10.0%
O=C1Nc2c(Br)cc(Br)cc2C1=Cc1cccc(Oc2ccc(Cl)c(Cl)c2)c1 [10738/A03],Met Kinase % Inhibition (P.130),20.7%
COc1ccc(C=C2C(=O)Nc3c(Br)cc(Br)cc32)cc1O [10738/A04],Met Kinase % Inhibition (P.130),55.9%
O=C1Nc2c(Br)cc(Br)cc2C1=Cc1cc(O)ccc1[N+](=O)[O-] [10738/A05],Met Kinase % Inhibition (P.130),33.1%
O=C1Nc2c(Br)cc(Br)cc2C1=Cc1cccc(O)c1O [10738/A06],Met Kinase % Inhibition (P.130),95.8%
O=C1Nc2c(Br)cc(Br)cc2C1=Cc1cc(O)cc(O)c1 [10738/A07],Met Kinase % Inhibition (P.130),72.7%
O=C1Nc2c(Br)cc(Br)cc2C1=Cc1ccc(Cl)c(Cl)c1 [10738/A08],Met Kinase % Inhibition (P.130),12.2%
COc1ccccc1C=C1C(=O)Nc2c(Br)cc(Br)cc21 [10738/A09],Met Kinase % Inhibition (P.130),20.2%
CC(C)c1ccc(C=C2C(=O)Nc3c(Br)cc(Br)cc32)cc1 [10738/A10],Met Kinase % Inhibition (P.130),35.7%
CCCOc1ccc(C=C2C(=O)Nc3c(Br)cc(Br)cc32)cc1 [10738/A11],Met Kinase % Inhibition (P.130),41.7%
Cc1ccc(Oc2cccc(C=C3C(=O)Nc4ccc(I)cc43)c2)cc1 [10738/B02],Met Kinase % Inhibition (P.130),78.7%
O=C1Nc2ccc(I)cc2C1=Cc1cccc(Oc2ccc(Cl)c(Cl)c2)c1 [10738/B03],Met Kinase % Inhibition (P.130),74.0%
COc1ccc(C=C2C(=O)Nc3ccc(I)cc32)cc1O [10738/B04],Met Kinase % Inhibition (P.130),70.7%
O=C1Nc2ccc(I)cc2C1=Cc1cc(O)ccc1[N+](=O)[O-] [10738/B05],Met Kinase % Inhibition (P.130),67.6%
O=C1Nc2ccc(I)cc2C1=Cc1cccc(O)c1O [10738/B06],Met Kinase % Inhibition (P.130),83.6%
O=C1Nc2ccc(I)cc2C1=Cc1cc(O)cc(O)c1 [10738/B07],Met Kinase % Inhibition (P.130),66.7%
O=C1Nc2ccc(I)cc2C1=Cc1ccc(Cl)c(Cl)c1 [10738/B08],Met Kinase % Inhibition (P.130),70.9%
COc1ccccc1C=C1C(=O)Nc2ccc(I)cc21 [10738/B09],Met Kinase % Inhibition (P.130),79.4%
CC(C)c1ccc(C=C2C(=O)Nc3ccc(I)cc32)cc1 [10738/B10],Met Kinase % Inhibition (P.130),70.7%
CCCOc1ccc(C=C2C(=O)Nc3ccc(I)cc32)cc1 [10738/B11],Met Kinase % Inhibition (P.130),75.4%
Cc1ccc(Oc2cccc(C=C3C(=O)Nc4ccc(Br)c(C)c43)c2)cc1 [10738/C02],Met Kinase % Inhibition (P.130),4.3%
Cc1c(Br)ccc2c1C(=Cc1cccc(Oc3ccc(Cl)c(Cl)c3)c1)C(=O)N2 [10738/C03],Met Kinase % Inhibition (P.130),22.7%
COc1ccc(C=C2C(=O)Nc3ccc(Br)c(C)c32)cc1O [10738/C04],Met Kinase % Inhibition (P.130),53.7%
Cc1c(Br)ccc2c1C(=Cc1cc(O)ccc1[N+](=O)[O-])C(=O)N2 [10738/C05],Met Kinase % Inhibition (P.130),34.2%
Cc1c(Br)ccc2c1C(=Cc1cccc(O)c1O)C(=O)N2 [10738/C06],Met Kinase % Inhibition (P.130),92.2%
Cc1c(Br)ccc2c1C(=Cc1cc(O)cc(O)c1)C(=O)N2 [10738/C07],Met Kinase % Inhibition (P.130),51.2%
Cc1c(Br)ccc2c1C(=Cc1ccc(Cl)c(Cl)c1)C(=O)N2 [10738/C08],Met Kinase % Inhibition (P.130),39.5%
COc1ccccc1C=C1C(=O)Nc2ccc(Br)c(C)c21 [10738/C09],Met Kinase % Inhibition (P.130),8.9%
Cc1c(Br)ccc2c1C(=Cc1ccc(C(C)C)cc1)C(=O)N2 [10738/C10],Met Kinase % Inhibition (P.130),3.2%
CCCOc1ccc(C=C2C(=O)Nc3ccc(Br)c(C)c32)cc1 [10738/C11],Met Kinase % Inhibition (P.130),12.0%
CNS(=O)(=O)c1ccc2c(c1)C(=Cc1cccc(Oc3ccc(C)cc3)c1)C(=O)N2 [10738/D02],Met Kinase % Inhibition (P.130),15.6%
CNS(=O)(=O)c1ccc2c(c1)C(=Cc1cccc(Oc3ccc(Cl)c(Cl)c3)c1)C(=O)N2 [10738/D03],Met Kinase % Inhibition (P.130),16.0%
CNS(=O)(=O)c1ccc2c(c1)C(=Cc1ccc(OC)c(O)c1)C(=O)N2 [10738/D04],Met Kinase % Inhibition (P.130),32.2%
CNS(=O)(=O)c1ccc2c(c1)C(=Cc1cc(O)ccc1[N+](=O)[O-])C(=O)N2 [10738/D05],Met Kinase % Inhibition (P.130),42.4%
CNS(=O)(=O)c1ccc2c(c1)C(=Cc1cccc(O)c1O)C(=O)N2 [10738/D06],Met Kinase % Inhibition (P.130),96.0%
CNS(=O)(=O)c1ccc2c(c1)C(=Cc1cc(O)cc(O)c1)C(=O)N2 [10738/D07],Met Kinase % Inhibition (P.130),68.3%
CNS(=O)(=O)c1ccc2c(c1)C(=Cc1ccc(Cl)c(Cl)c1)C(=O)N2 [10738/D08],Met Kinase % Inhibition (P.130),37.7%
CNS(=O)(=O)c1ccc2c(c1)C(=Cc1ccccc1OC)C(=O)N2 [10738/D09],Met Kinase % Inhibition (P.130),22.7%
CNS(=O)(=O)c1ccc2c(c1)C(=Cc1ccc(C(C)C)cc1)C(=O)N2 [10738/D10],Met Kinase % Inhibition (P.130),25.3%
CCCOc1ccc(C=C2C(=O)Nc3ccc(S(=O)(=O)NC)cc32)cc1 [10738/D11],Met Kinase % Inhibition (P.130),4.3%
Cc1ccc(Oc2cccc(C=C3C(=O)Nc4ccc(S(=O)(=O)Nc5ccc(C(F)(F)F)cc5)cc43)c2)cc1 [10738/E02],Met Kinase % Inhibition (P.130),3.8%
O=C1Nc2ccc(S(=O)(=O)Nc3ccc(C(F)(F)F)cc3)cc2C1=Cc1cccc(Oc2ccc(Cl)c(Cl)c2)c1 [10738/E03],Met Kinase % Inhibition (P.130),21.1%
COc1ccc(C=C2C(=O)Nc3ccc(S(=O)(=O)Nc4ccc(C(F)(F)F)cc4)cc32)cc1O [10738/E04],Met Kinase % Inhibition (P.130),64.1%
O=C1Nc2ccc(S(=O)(=O)Nc3ccc(C(F)(F)F)cc3)cc2C1=Cc1cc(O)ccc1[N+](=O)[O-] [10738/E05],Met Kinase % Inhibition (P.130),61.0%
O=C1Nc2ccc(S(=O)(=O)Nc3ccc(C(F)(F)F)cc3)cc2C1=Cc1cccc(O)c1O [10738/E06],Met Kinase % Inhibition (P.130),92.4%
O=C1Nc2ccc(S(=O)(=O)Nc3ccc(C(F)(F)F)cc3)cc2C1=Cc1cc(O)cc(O)c1 [10738/E07],Met Kinase % Inhibition (P.130),89.3%
O=C1Nc2ccc(S(=O)(=O)Nc3ccc(C(F)(F)F)cc3)cc2C1=Cc1ccc(Cl)c(Cl)c1 [10738/E08],Met Kinase % Inhibition (P.130),52.6%
COc1ccccc1C=C1C(=O)Nc2ccc(S(=O)(=O)Nc3ccc(C(F)(F)F)cc3)cc21 [10738/E09],Met Kinase % Inhibition (P.130),18.0%
CC(C)c1ccc(C=C2C(=O)Nc3ccc(S(=O)(=O)Nc4ccc(C(F)(F)F)cc4)cc32)cc1 [10738/E10],Met Kinase % Inhibition (P.130),5.8%
CCCOc1ccc(C=C2C(=O)Nc3ccc(S(=O)(=O)Nc4ccc(C(F)(F)F)cc4)cc32)cc1 [10738/E11],Met Kinase % Inhibition (P.130),11.8%
Cc1ccc(Oc2cccc(C=C3C(=O)Nc4ccc(S(=O)(=O)N5CCOCC5)cc43)c2)cc1 [10738/F02],Met Kinase % Inhibition (P.130),66.1%
O=C1Nc2ccc(S(=O)(=O)N3CCOCC3)cc2C1=Cc1cccc(Oc2ccc(Cl)c(Cl)c2)c1 [10738/F03],Met Kinase % Inhibition (P.130),20.0%
COc1ccc(C=C2C(=O)Nc3ccc(S(=O)(=O)N4CCOCC4)cc32)cc1O [10738/F04],Met Kinase % Inhibition (P.130),61.4%
O=C1Nc2ccc(S(=O)(=O)N3CCOCC3)cc2C1=Cc1cc(O)ccc1[N+](=O)[O-] [10738/F05],Met Kinase % Inhibition (P.130),33.5%
O=C1Nc2ccc(S(=O)(=O)N3CCOCC3)cc2C1=Cc1cccc(O)c1O [10738/F06],Met Kinase % Inhibition (P.130),86.7%
O=C1Nc2ccc(S(=O)(=O)N3CCOCC3)cc2C1=Cc1cc(O)cc(O)c1 [10738/F07],Met Kinase % Inhibition (P.130),52.3%
O=C1Nc2ccc(S(=O)(=O)N3CCOCC3)cc2C1=Cc1ccc(Cl)c(Cl)c1 [10738/F08],Met Kinase % Inhibition (P.130),60.5%
COc1ccccc1C=C1C(=O)Nc2ccc(S(=O)(=O)N3CCOCC3)cc21 [10738/F09],Met Kinase % Inhibition (P.130),28.9%
CC(C)c1ccc(C=C2C(=O)Nc3ccc(S(=O)(=O)N4CCOCC4)cc32)cc1 [10738/F10],Met Kinase % Inhibition (P.130),47.9%
CCCOc1ccc(C=C2C(=O)Nc3ccc(S(=O)(=O)N4CCOCC4)cc32)cc1 [10738/F11],Met Kinase % Inhibition (P.130),52.6%
Cc1ccc(Oc2cccc(C=C3C(=O)Nc4ccc(CCCl)cc43)c2)cc1 [10738/G02],Met Kinase % Inhibition (P.130),16.9%
O=C1Nc2ccc(CCCl)cc2C1=Cc1cccc(Oc2ccc(Cl)c(Cl)c2)c1 [10738/G03],Met Kinase % Inhibition (P.130),32.8%
COc1ccc(C=C2C(=O)Nc3ccc(CCCl)cc32)cc1O [10738/G04],Met Kinase % Inhibition (P.130),42.6%
O=C1Nc2ccc(CCCl)cc2C1=Cc1cc(O)ccc1[N+](=O)[O-] [10738/G05],Met Kinase % Inhibition (P.130),27.3%
O=C1Nc2ccc(CCCl)cc2C1=Cc1cccc(O)c1O [10738/G06],Met Kinase % Inhibition (P.130),86.5%
O=C1Nc2ccc(CCCl)cc2C1=Cc1cc(O)cc(O)c1 [10738/G07],Met Kinase % Inhibition (P.130),40.4%
O=C1Nc2ccc(CCCl)cc2C1=Cc1ccc(Cl)c(Cl)c1 [10738/G08],Met Kinase % Inhibition (P.130),36.8%
COc1ccccc1C=C1C(=O)Nc2ccc(CCCl)cc21 [10738/G09],Met Kinase % Inhibition (P.130),16.9%
CC(C)c1ccc(C=C2C(=O)Nc3ccc(CCCl)cc32)cc1 [10738/G10],Met Kinase % Inhibition (P.130),12.5%
CCCOc1ccc(C=C2C(=O)Nc3ccc(CCCl)cc32)cc1 [10738/G11],Met Kinase % Inhibition (P.130),22.2%
Cc1ccc(Oc2cccc(C=C3C(=O)Nc4c(Br)cc(Br)c(C)c43)c2)cc1 [10738/H02],Met Kinase % Inhibition (P.130),35.3%
